Results on one molecule are retold here after US11202789B2, “Method of treating glycogen storage disease” (Viking Therapeutics, Inc., priority 2016, dated 2021).

The test system of the series is male ob/ob mice. In words: 9-week efficacy and safety study in male ob/ob mice. To be noted: T3 100 nmole/kg/day SC. In kind it is in vivo. As for the experimental part: The objective of this study was to evaluate the efficacy and safety of Compound 2 treatment at doses of 3, 10, and 30 mg/kg/day for 9 weeks in male ob/ob mice. 3,3′,5-Triiodo-L-thyronine (T3) was used as a comparator in this study.
Methods: Seventy-eight adult male ob/ob mice were assigned to six different treatment groups (n=6-24/group). Animals were dosed daily with either vehicle [1% carboxymethylcellulose (CMC) in water, PO], T3 [(100 nmole/kg/day in aqueous solution, subcutaneous (SC)], or Compound 2 [3, 10 or 30 mg/kg/day in 1% CMC, PO]. Blood glucose and plasma cholesterol were measured weekly in all animals. Subsets of animals in the vehicle-treated and 30 mg/kg/day Compound 2-treated groups were sacrificed after 3, 6 and 9 weeks of treatment to analyze the temporal effects of Compound 2 on liver weight and liver triglyceride levels. Liver triglyceride levels, liver glycogen content, heart, liver and epididymal fat pad weights, and plasma clinical chemistry parameters were measured at sacrifice.

The structures appear in SMILES notation.

In the case of `N[C@@H](Cc1cc(I)c(Oc2ccc(O)c(I)c2)c(I)c1)C(=O)O` [Compound T3, 3,3′,5-Triiodo-L-thyronine, reference compound], the ALT levels result is given as “decreased”, the “increased plasma triglyceride levels” value was ~56%, the plasma albumin levels result was “decreased” and the plasma calcium levels entry is given as “decreased”. In addition, the “total plasma protein levels” value is reported as “decreased”. For the setting “9 weeks”, the liver weight entry is recorded as “lower”. Besides, the blood glucose levels result (all time points, vs vehicle) is “similar”. In addition, the “total plasma cholesterol lower” value (at 9 weeks, vs vehicle) is on record as ~66%. Under “vs vehicle”, the “terminal liver glycogen levels” value was “similar” and the “terminal liver triglyceride levels” value is listed as “similar”.
